Measurements taken from paper PMC8521653 (ACS Medicinal Chemistry Letters, 2021).
Peptide text beside a SMILES is read from it. * marks the point of attachment. Cbz = O=C(OCc1ccccc1)*

How the values were obtained:
[1] = molecular target: T1, purified recombinant porcine PREP (Sus scrofa, UniProt P23687); test: Inhibition of the proteolytic activity of PREP, microplate assay with Suc-Gly-Pro-AMC substrate; assay type: biochemical; conditions: for IC50: recombinant porcine PREP, Suc-Gly-Pro-AMC, 30 °C, pH 7.0, 95% CI in brackets
T1 construct: made in house; host or cells: E. coli
Protocol: Inhibition of the proteolytic activity (IC50) of PREP was determined using purified recombinant porcine PREP[25] as previously described.[16]
Measuring biological activity
Inhibitory Activity. The IC 50 values for compounds were determined in the microplate assay procedure described in Kilpeläinen et al.1 Porcine PREP cDNA was expressed in E.coli cells and purified as described in Venäläinen et al.3 The enzyme dilution was preincubated with 0.1 M sodium–potassium phosphate buffer (75 µL, pH 7.0) containing the compounds at desired concentrations in 30 °C for 30 min. The final concentration of the compounds in the assay mixture varied from 1 mM-1 nM and the final concentration of the enzyme was approximately 0.1 nM as measured by Bradford´s method. The enzyme reaction was carried out by adding 25 µL of 4 mM Suc-Gly-Pro-AMC substrate dissolved in 0.1 M sodium–potassium phosphate buffer (pH 7.0) into the assay mixture and incubating at 30° C for 60 min. The reaction was terminated by adding […] of 1 M sodium acetate buffer (pH 4.2). Formation of AMC was measured with Victor2 multilabel counter (PerkinElmer; excitation/emission 360 nm/ 460 nm), with a standard curve of 0.1-5 nM AMC in 0.1 M sodium–potassium phosphate buffer present. All activity measurements were made at least in triplicate. The inhibitory activities (percent of control) were plotted against the log concentration of the compound, and the IC50-value was determined by non-linear regression utilizing GraphPad Prism 7.0 software. […]

[2] = system: PREP-catalyzed α-synuclein dimerization in N2A cells; test: αSyn dimerization, protein fragment complementation assay (PCA) in N2A cells; assay type: cell-based; conditions: for effect on αSyn dimerization (in words) / activity at 10 µM: 10 μM; for activity at 10 µM: Mus musculus, luminescence signal percentage of DMSO control with SEM, N2A cells; for increase of aSyn dimerization compared to DMSO control: 10 µM proteasome inhibitor, positive control, PCA, % increase
Protocol: The effect of the compounds on autophagy was determined by using GFP-LC3B-RFP expressing HEK-293 cells.[15],[34] The effect on αSyn dimerization was evaluated with a protein fragment complementation assay (PCA) by using N2A cells.[10],[15],[16] The increase in autophagic flux was measured as a decrease in GFP signal due to increased degradation of GFP-LC3B, and the decrease in αSyn dimerization was measured as a decrease in luminescence, both compared with DMSO (Table 1). […] Rapamycin and starvation are known to induce autophagy, lowering the fluorescence to 65–70% in our assays, and were therefore used as reference compounds for this. Test compounds were assayed at 10 μM concentration with 0.1% DMSO. A graphical representation of the mean values (± SEM) can be seen in the Supporting Information (Figure S1).
Measuring biological activity […]
α-Synuclein Dimerization. αSyn dimerization was assessed by using PCA, which was carried out as described previously in Kilpeläinen et al.1 In short, N2A cells were seeded on poly-L-lysine-coated 96-well plates (Isoplate™ white wall, PerkinElmer Life Sciences) at the density of 13 000 cells/well. 24 h post-plating, reporter plasmids were transfected with 100 ng of total plasmid DNA per well. N2A cells were transfected with 25 ng of both αSyn-Gluc1 and αSyn-Gluc2 and 50 ng mock-plasmid or non-tagged human PREP expression plasmid 50 ng/well. Lipofectamine 3000 (Thermo Fischer Scientific) was used as the transfection reagent. 100 µL normal growth medium was added to all wells at 24 h post-transfection. 48 hours post-transfection medium was changed to phenol red free DMEM without serum containing the tested compounds at 10 µM concentration, with 0,1% DMSO as vehicle control. Proteasome inhibitors lactacystin (AG Scientific) at 10 µM and MG-132 (Enzo Life Sciences) at 10 µM served as a positive control. The PCA signal was assessed by injecting 25 µL of native coelenterazine (Nanolight Technology) in phenol red free DMEM per well (final concentration 6 µM). The emitted luminescence was read using Varioskan LUX multimode microplate reader (Thermo Scientific). For each experimental condition, 4 replicate wells were used in each experiment, and at least 3 separate experiments for each treatment except for 15c which had 2 separate experiments. […]

[3] = system: GFP-LC3B-RFP expressing HEK-293 cells; test: Autophagic flux, GFP signal in GFP-LC3B-RFP expressing HEK-293 cells; assay type: cell-based; conditions: for effect on autophagy (in words) / activity at 10 µM: 10 μM; for activity at 10 µM: Homo sapiens, HEK293, 24 h, GFP signal percentage of DMSO control with SEM, HEK-293 cells, read-out: autophagy at 10 μM (%)

T1 sequence (P23687 whole entry): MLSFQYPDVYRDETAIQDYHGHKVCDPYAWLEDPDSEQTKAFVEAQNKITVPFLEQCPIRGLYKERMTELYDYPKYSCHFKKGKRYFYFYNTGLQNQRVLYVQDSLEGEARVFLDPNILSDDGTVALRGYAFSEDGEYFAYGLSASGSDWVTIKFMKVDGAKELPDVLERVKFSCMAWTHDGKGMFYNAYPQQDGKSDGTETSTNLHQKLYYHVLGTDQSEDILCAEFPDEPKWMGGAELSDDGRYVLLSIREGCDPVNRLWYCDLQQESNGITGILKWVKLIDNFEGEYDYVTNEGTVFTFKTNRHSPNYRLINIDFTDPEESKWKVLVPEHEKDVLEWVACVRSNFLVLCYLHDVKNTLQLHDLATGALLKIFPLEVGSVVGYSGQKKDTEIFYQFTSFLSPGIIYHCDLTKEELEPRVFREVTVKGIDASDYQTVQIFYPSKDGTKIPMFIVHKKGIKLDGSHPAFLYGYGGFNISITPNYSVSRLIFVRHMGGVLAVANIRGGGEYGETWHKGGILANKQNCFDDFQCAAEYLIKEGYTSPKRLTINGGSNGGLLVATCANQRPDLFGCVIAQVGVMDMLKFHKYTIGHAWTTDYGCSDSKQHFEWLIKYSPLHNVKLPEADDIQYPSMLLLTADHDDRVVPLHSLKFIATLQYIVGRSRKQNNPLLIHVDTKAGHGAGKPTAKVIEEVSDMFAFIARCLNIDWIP

| IC50 [1] | SMILES | effect on αSyn dimerization (in words) [2] | activity at 10 µM [2] | effect on autophagy (in words) [3] | activity at 10 µM [3] | also measured |
| --- | --- | --- | --- | --- | --- | --- |
| < 1 nM | O=C(c1ncc[nH]1)[C@@H]1CCCN1C(=O)[C@@H]1CCCN1C(=O)CCCc1ccccc1 [Compound 2a, reference compound] | lack of activity | 99% | lack of activity | 95% | PREP activity at 1 nM inhibitor concentration compared to control ([1]; 1 nM inhibitor, remaining activity): 43% |
| 1000 nM | O=C(CCc1ccccc1)N1CCC[C@H]1C(=O)N1CCC[C@H]1c1nnn[nH]1 [Compound 15a] | – | 116% | – | 96% | – |
| 3900 nM | C[C@H](NC(=O)CCc1ccccc1)C(=O)N1CCC[C@H]1c1nnn[nH]1 [Compound 15b] | – | 98% | – | 90% | – |
| – | CN(CC(=O)N1CCC[C@H]1c1nnn[nH]1)C(=O)CCc1ccccc1 [Compound 15c] | – | 95% | – | 95% | – |
| 770 nM | O=C(CCCCc1ccccc1)N1CCC[C@H]1C(=O)N1CCC[C@H]1c1nnn[nH]1 [Compound 16a] | – | 102% | – | 98% | – |
| 5000 nM | C[C@H](NC(=O)CCCCc1ccccc1)C(=O)N1CCC[C@H]1c1nnn[nH]1 [Compound 16b] | – | 92% | – | 94% | – |
| 94 nM | O=C(CCCc1cccs1)N1CCC[C@H]1C(=O)N1CCC[C@H]1c1nnn[nH]1 [Compound 17a] | maintained some activity on αSyn dimerization | 87% | slightly improved the activity in inducing autophagy | 87% | – |
| 1100 nM | C[C@H](NC(=O)CCCc1cccs1)C(=O)N1CCC[C@H]1c1nnn[nH]1 [Compound 17b] | inactive for both functions | 93% | inactive for both functions | 92% | – |
| – | Cn1nnc([C@@H]2CCCN2C(=O)[C@@H]2CCCN2C(=O)CCCc2ccccc2)n1 [Compound 19a] | lost the activity on αSyn dimerization | 101% | capable of inducing autophagy | 85% | – |
| – | O=C(CCCc1ccccc1)N1CCC[C@H]1C(=O)N1CCC[C@H]1c1nnc[nH]1 [Compound 20a] | no activity on αSyn dimerization | 96% | some minor activity in modulating autophagy | 87% | – |
| – | C[C@H](NC(=O)CCCc1ccccc1)C(=O)N1CCC[C@H]1c1nnc[nH]1 [Compound 20b] | – | 110% | – | 91% | – |
| – | CC(C)C[C@@H](C=O)NC(=O)[C@H](CC(C)C)NC(=O)[C@H](CC(C)C)NC(=O)OCc1ccccc1 [MG-132, reference compound] (Cbz-Leu-Leu-Leu-aldehyde) | – | – | – | – | increase of aSyn dimerization compared to DMSO control [2]: 29% |
| – | CO/C1=C\C(C)=C\[C@@H](C)[C@@H](O)[C@@H](C)C/C(C)=C/C=C/[C@H](OC)[C@@H]([C@@H](C)[C@@H](O)[C@H](C)[C@@]2(O)C[C@@H](O)[C@H](C)[C@@H](C(C)C)O2)OC1=O [bafilomycin A1, reference compound] | – | – | – | – | increase in autophagic flux assay GFP signal compared to DMSO control ([3]; 20 nM, autophagy inhibitor control, % increase): 40% |
| – | CC(=O)N[C@@H](CSC(=O)[C@]1([C@@H](O)C(C)C)NC(=O)[C@H](C)[C@@H]1O)C(=O)O [lactacystin, reference compound] | – | – | – | – | increase of aSyn dimerization compared to DMSO control [2]: 32% |
| – | CO[C@H]1C[C@@H]2CC[C@@H](C)[C@@](O)(O2)C(=O)C(=O)N2CCCC[C@H]2C(=O)O[C@H]([C@H](C)C[C@@H]2CC[C@@H](O)[C@H](OC)C2)CC(=O)[C@H](C)/C=C(\C)[C@@H](O)[C@@H](OC)C(=O)[C@H](C)C[C@H](C)/C=C/C=C/C=C/1C [rapamycin, reference compound] | – | – | – | – | decrease in autophagic flux assay GFP signal compared to DMSO control ([3]; 0.5 µM, positive control, % decrease): 34%; fluorescence (GFP signal) relative to DMSO control ([3]; reference for autophagy induction, in our assays): 65–70% |
